Data from article PMC3651166, “Differential Cytotoxic Activity of a Novel Palladium-Based Compound on Prostate Cell Lines, Primary Prostate Epithelial Cells and Prostate Stem Cells” (PLoS ONE, 2013).
Entries after “also recorded” stand apart in the source; their conditions may differ.

Experiments:
Format in all cases: cell-based, human
[1] = test system: cleaved caspase-3; test: Western blotting for apoptosis, cell lines
Method: (§1) Following drug treatment, cell lysates were harvested using Cytobuster Protein Extraction Reagent (71009, EMD Millipore, Darmstadt, Germany) with protease inhibitors (cOmplete, EDTA-free Protease Inhibitor Cocktail Tablets, Roche Applied Science, UK). 20 µg of protein extract were loaded on 12% SDS-PAGE gels and wet-transferred to a PVDF membrane. Antibodies used include: monoclonal anti-β-actin 1∶5000 (A5316, Sigma-Aldrich), anti-LC3B 1∶3000 (Ab51520, abcam), cleaved caspase-3 (Asp175) 1∶1000 (9661S, Cell Signaling Technology) and secondary antibodies were Rabbit anti-mouse-HRP 1∶10000 (P0260, Dako) and anti-rabbit IgG HRP-linked 1∶5000 (Cell Signaling Technology Inc. 7074S). Kaleidoscope protein marker was run on each gel (161-0324, Bio-Rad).

[2] = test system: cleaved caspase-3; test: Western blotting for apoptosis, primary cultures
Method: as §1

[3] = test system: γH2AX nuclear foci; test: γH2AX immunofluorescence, DNA damage in primary cultures; conditions: 48 h
Method: γH2AX staining: Cells were seeded onto 8-well collagen I-coated chamber slides. […] After blocking of non-specific binding with 2% BSA in PBS with 1% goat serum for 1 hour at RT, primary antibody (anti-phospho-histone H2A.X (Ser139), clone JBW301, Millipore, Cat no. 05–636) at 1∶1000 dilution was added in 3% BSA in PBS at 4°C overnight followed by three washes in 0.5% BSA in PBS with 0.175% Tween 20. Following incubation with secondary antibody (Goat anti-mouse Alexa Fluor 568, Invitrogen, Cat no. A-11004) at 1∶1000 dilution for 45 min in 3% BSA in PBS and three more washes in the same washing buffer, the slides were mounted using Vectashield with DAPI (Vector Laboratories, Cat no. H-1200). LC3-B staining: Cells were treated as above then fixed with 4% paraformaldehyde, followed by an incubation in 0.3% Triton X-100. After blocking with 10% normal goat serum, cells were incubated in anti-LC3B 1∶200 (Ab51520, abcam) diluted in 0.1% Triton X-100 in PBS. […]
Since the mechanism of action of the Pd complex has not been fully characterized, the DNA-damaging effect was assessed. […] Nuclei with evidence of γH2AX nuclear foci, indicative of DNA damage, were counted on 10 randomly chosen fields at the highest (63x) magnification and the mean number of positively-stained nuclei was calculated. At least 100 cells per well were counted.

[4] = test system: PNT1A; test: MTS assay, anti-growth effect on cell line
Method: (§2) In this study, six different prostate cell lines (PNT1A, PNT2-C2, BPH-1, PC-3, LNCaP, P4E6) were used (Table 1). These cell lines encompass the spectrum of cellular differentiation status (basal, intermediate and luminal phenotypes), as well as the spectrum of normal, early cancer and late cancer. BPH-1 is derived from benign prostate hyperplasia (BPH), while PNT2-C2 and PNT1A are derived from normal prostate. PC-3, LNCaP and P4E6 are cancer cell lines. LNCaP, PNT2-C2, PNT1A were grown in RPMI medium with 10% FCS (foetal calf serum); PC-3 was grown in Ham’s F-12 medium with 7% FCS; BPH-1 was grown in RPMI medium with 5% FCS; P4E6 was grown in KSFM (Keratinocyte serum free medium) with 2% FCS. No antibiotics were used in any media. The cells were incubated at 37°C in a humidified atmosphere containing 5% CO2.
(§3) This assay was performed for the initial screening of the effect of the Pd complex on the cell lines and the whole cell population of primary cultures. The CellTiter 96® Aqueous One Solution Cell Proliferation Assay kit (G3580, Promega, Madison, WI, USA) was used and the manufacturer’s instructions were followed. Briefly, after treating cells that were seeded at a density of 5,000 cells per well in a 96-well plate in triplicate for a desired period (24 h, 48 h, 72 h), 20 µL of reagent was added to each well. Following 2.5 h incubation at 37°C, the absorbance was read at 485 nm using a plate reader (PolarStar Optima, BMG Labtech, UK). Percent viability was calculated using the formula (% Viability = [(Sample Absorbance/Control Absorbance)]×100.
(§4) MTS and ATP assays were performed in triplicate and data presented as the mean +/− standard deviation. IC50 values (Table 3 and Table 4) were calculated from graphs of transformed data following application of the nonlinear regression (curve fit) that represents the log(inhibitor) ‘v’ normalized response (GraphPad Prism software) (Supplementary Figures S1 and S2). For significance calculations, the Wilcoxon rank sum test was used (Sigmaplot). Flow cytometry analysis was carried out in triplicate and results are presented as an average with error bars indicating the standard error.

[5] = test system: PC-3; test: MTS assay, anti-growth effect on cell line
Method: as §2, §3, §4

[6] = test system: PNT2-C2; test: MTS assay, anti-growth effect on cell line
Method: as §2, §3, §4

[7] = test system: BPH-1; test: MTS assay, anti-growth effect on cell line
Method: as §2, §3, §4

[8] = test system: P4E6; test: MTS assay, anti-growth effect on cell line
Method: as §2, §3, §4

[9] = test system: LNCaP; test: MTS assay, anti-growth effect on cell line
Method: as §2, §3, §4

[PdCl(terpy)](sac)⋅2 H2O [Pd complex]
cleaved caspase-3 (apoptosis) ([1]; BPH-1, PNT2-C2 and P4E6 cells): clear induction of cleaved caspase-3 | cleaved caspase-3 (apoptosis) ([1]; LNCaP cells): only observed after treatment with 25 µM Pd complex | cleaved caspase-3 (apoptosis) ([1]; PC3 cells): no evidence of cleaved caspase-3 | cleaved caspase-3 (apoptosis) ([2]; BPH primary sample): only a positive result with the BPH sample at a low dose | cleaved caspase-3 (apoptosis) ([2]; primary cancer samples): no evidence of cleaved caspase-3; also recorded: No apoptosis was induced | level of DNA damage (γH2AX nuclear foci) ([3]; 3.12 µM): did not induce a significant level of DNA damage | level of DNA damage (γH2AX nuclear foci) ([3]; etoposide and Pd complex at the same dose, primary cultures from prostate carcinoma): same level of DNA damage | IC50 ([4]; 24 h): 28 µM | IC50 ([4]; 48 h): 1.26 µM | IC50 ([4]; 72 h): 0.106 µM | IC50 ([5]; PC-3, 24 h): 98.9 µM | IC50 ([5]; PC-3, 48 h): 49.1 µM | IC50 ([5]; PC-3, 72 h): 26.8 µM | IC50 ([6]; PNT2-C2, 24 h): 1.73 µM | IC50 ([6]; PNT2-C2, 48 h): 17.2 µM | IC50 ([6]; PNT2-C2, 72 h): 0.903 µM | IC50 ([7]; BPH-1, 24 h): 17.6 µM | IC50 ([7]; BPH-1, 48 h): 1.88 µM | IC50 ([7]; BPH-1, 72 h): 0.14 µM | IC50 ([8]; P4E6, 24 h): 21.8 µM | IC50 ([8]; P4E6, 48 h): 9.66 µM | IC50 ([8]; P4E6, 72 h): 4.37 µM | IC50 ([9]; 24 h): 106 µM | IC50 ([9]; 48 h): 11.9 µM | IC50 ([9]; 72 h): 3.43 µM
